Measurements reported in paper PMC10800023 (Human Molecular Genetics, 2023).
Where “and” joins values, the source holds several entries; their conditions need not be identical. Equal entries are not always repeated. Where two headings read alike, the source gives them in different places.

Experiments:
STAT1 = assay: GRE-mediated STAT1 in cultured BMDM; type: cell-based, mouse; conditions: for EC50: Mus musculus, BMDM, corticosteroid overnight, LPS 10 ng/ml 3 h; for STAT1/IFN-γ Ratio: ratio of EC50 values
Excerpt: The immunosuppressive activity of corticosteroids is in part due to their inhibition of NF-κB-induced cytokines including TNF-α, IL-6, and IL-12. Furthermore, expression of some inflammatory-mediated proteins such as STAT1 is mediated via GREs, and not the NF-κB pathway. We therefore expanded murine bone marrow-derived macrophages (BMDM) in vitro, and after 5 days of culture tested the relative efficacy of different corticosteroids to prevent LPS-induced cytokine secretion.
BMDM mouse bone marrow derived macrophage (mBMDM) cultures were generated from the femur and tibia from two 7–11-week-old C57BL/6 mice. Briefly, bone marrow cells were carefully flushed out, suspended in ice-cold PBS, and spun down. After the supernatant was removed, the pelleted cells were resuspended in 2 ml (ammonium-Chloride-Potassium) ACK lysis buffer (Thermo Fisher, Cat# A1049201) and incubated for 3–4 min, followed by 14 ml ice-cold PBS, and then spun down. The pelleted cells were resuspended in 43 ml complete media [Roswell Park Memorial Institute (RPMI 1640), Gibco, Cat# 11875-093; 10% heat-inactivated fetal bovine serum (HiFBS), HyClone, Cat# SH30406.02; 1% 2 mM L-glutamine; 1% penicillin-streptomycin, Sigma, Cat# P4333-100ML; 1% MEM NEAA, Gibco, Cat# 11140-050; 1% Na Pyruvate, Gibco, Cat# 11360-070; 55 μM 2-Mercaptoethanol, Gibco, Cat#21985-023]. A total of 25 ng/ml M-CSF was added to the culture. Cells were dispensed as 200 μl per well into a 96-well tissue culture plate and incubated at 37°C, 5% CO2 for 4 days. On Day 5, media were removed and 100 μl fresh complete media containing M-CSF were added. Corticosteroids were added and cells incubated at 37°C and 5% CO2 overnight. Untreated cells were incubated with media. On Day 6, 10 ng/ml of lipopolysaccharide (LPS) was added and incubated at 37°C and 5% CO2 for 3 h followed by removal of cell media for cytokine analysis. Cytokines were measured using a Meso Scale Discovery (MSD), V-PLEX kit (V-PLEX Cat# K-15048D, www.mesoscale.com).

B10-mdx mice [1] = assay: Tail-suspension test 24 h after force-swim test (Study 2); type: in vivo, mouse; conditions: daily dosing 4 weeks, vs vehicle B10-mdx
Protocol: Corticosteroid-treated mice were subjected to the force-swim test (FST) followed by the tail-suspension test (TST) 24 h later. During the TST, normal mice will struggle and constantly move. However, mice show depression-like behavior by quickly giving up, stop moving, and remaining still for a greater percentage of the time.
(§1) Study 2: The goal of the second study was to evaluate corticosteroid side effects and efficacy in a longer study (4 months). After 28 days of dosing, mice were tested for depression-like behavior using a measure of corticosteroid-induced depression (FST followed by TST). Muscle function was tested via grip strength. Tests for depression and for grip-strength were done in a blinded manner. After 4 months, mice were euthanized, and tissues were collected. Bone from whole left leg was collected for micro-CT analysis. The number of animals per group was as follows: WT, n = 16; B10-mdx, n = 15; corticosteroid-treated groups, n = 8–10.
• 1) Force-swim test: Animals were single housed and acclimated in the behavior room for 30 min prior to test. A clean 1-L beaker was filled with 700 to 800 ml of 23°C water. Each mouse was placed into the water for 6 min. The total immobility time was recorded. After the test, the animals were dried and placed in a cage on a heating pad for about 10 min before returning to the home cages. • 2) Tail-suspension test: Isolated mice were suspended 50 cm above the floor by surgical tape placed approximately 1 cm from the tip of the tail for 6 min. The total immobility time of mice was measured. Mice were considered immobile only when they hung passively and completely motionless.

B10-mdx mice [2] = assay: Femur bone density by micro-CT (Study 2); type: in vivo, mouse; conditions: for bone density measured by microCT: 4 months of treatment
Protocol: To evaluate the similarities and differences of potential side effects of the three corticosteroids, plasma/blood were evaluated ex vivo for their effects on endogenous corticosteroid after 14 days of dosing (Study 1) and glucose levels (Study 1) after 11 days of dosing. Bone formation was measured by evaluating osteocalcin levels in Study 1 after 14 days. Bone density was measured by micro-computed tomography (micro-CT) in Study 2 after 4 months.
as §1
Micro-CT analysis was performed by the Rutgers University Molecular Imaging Center (RUMIC). Briefly, skeletons were harvested at trial endpoint and stored in 70% ethanol and transferred for imaging analysis. Hindlimbs were soaked in isotonic saline solution overnight to rehydrate before imaging. […] The rotation step was 0.4° through 180° total rotation, and three images were averaged at each rotation step. Each distal femur was scanned separately, and images were saved. Scan images were reconstructed using Skyscan nRecon software.

B10-mdx mice [3] = assay: Diaphragm hydroxyproline assay (Study 2); type: in vivo, mouse; conditions: 4 months
Protocol: To determine muscle damage in B10-mdx mice and to evaluate the effects of the three corticosteroids on muscle, we used the hydroxyproline assay to measure the collagen content in diaphragm muscle tissue, a measure of muscle damage and fibrosis. […] Levels were reduced in mice treated with any of the three corticosteroids (Fig. 6d).
Diaphragm muscles were dissected, weighed, and stored at −80°. Tissues were cut to avoid the tendon(s), and 10 ± 1 mg of tissue was homogenized through sonication. Water and hydrochloric acid (12 M) content were normalized prior to hydrolysis at 120° for 3 h in pressure-tight polypropylene vials. After boiling, the hydrolysates were centrifuged at 10 000 × g for 3 min, and 6-μl triplicates of the hydrolysate were added to clear 96-well plates for evaporation in a 60°C oven overnight. The following day, a hydroxyproline kit (Sigma, cat #MAK008) was used to determine the hydroxyproline content. In each sample and standard well, 100 μl Chloramine T/Oxidation buffer mixture was added, incubated for 5 min at room temperature, and followed with 100 μl of perchloric acid diluted DMAB concentrate. The plate was sealed and incubated in a 60°C oven for 90 min. The 96-well plates were read using a BioTek Epoch 2 Spectrophotometer at an absorbance of 560 nm.

[4] = cited from earlier work
[5] = tested on: mineralocorticoid receptor; set-up: method as in PMID 30745312; conditions: cited from earlier work
[6] = doses tested (deflazacort 1.25-15 mg/kg; vamorolone all doses 15, 30, 45 mg/kg)
[7] = human, 2 mg/kg, ref Conklin et al., Pharmacol Res. 2018
[8] = human, 6 mg/kg, ref Conklin et al., Pharmacol Res. 2018

SMILES | EC50 (STAT1) [nM] | STAT1/IFN-γ Ratio (STAT1) [×] | immobilization time in tail suspension test (B10-mdx mice [1]; [6]) | bone density measured by microCT (B10-mdx mice [2]) | diaphragm hydroxyproline (fibrosis) (B10-mdx mice [3]; 5 and 15 mg/kg) | Cmax ([4]; human, 0.9 mg/kg, ref FDA 208684,208685Orig1s000ClinPharmR.pdf) [ng/mL] | AUC (Day 1) ([4]; human, 0.9 mg/kg, ref FDA 208684,208685Orig1s000ClinPharmR.pdf, listed as Emflaza) | effect on mineralocorticoid receptor signaling [5] | immobilization time in tail suspension test (B10-mdx mice [1]; high dose (5 mg/kg)) | bone density in the femur (micro-CT tissue mineral density) (B10-mdx mice [2]; 4 months, highest dose) | diaphragm hydroxyproline (fibrosis) (B10-mdx mice [3]; 5 mg/kg) | AUC (Day 1) ([4]; human adults, 0.35 mg/kg (20 mg/57 kg), AUC0-12, average of two formulations, ref Bashar et al., Dose Response 2018) [ng·h/mL] | Cmax ([4]; human adults, 0.35 mg/kg (20 mg/57 kg), average of two formulations, ref Bashar et al., Dose Response 2018) [ng/mL] | diaphragm hydroxyproline (fibrosis) (B10-mdx mice [3]; 45 mg/kg) | diaphragm hydroxyproline (fibrosis) (B10-mdx mice [3]; 15 and 30 mg/kg) | AUC (Day 1) [4, 7] [ng·h/mL] | Cmax [4, 7] [ng/mL] | AUC (Day 1) [4, 8] [ng·h/mL] | Cmax [4, 8] [ng/mL]
CC(=O)OCC(=O)[C@@]12N=C(C)O[C@@H]1C[C@H]1[C@@H]3CCC4=CC(=O)C=C[C@]4(C)[C@H]3[C@@H](O)C[C@@]12C [Deflazacort] | 3.1 | 11 | did not increase | not reaching significance | reduced fibrosis | 329 | 567 ng·h/mL and 630 ng·h/mL | no effect | – | – | – | – | – | – | – | – | – | – | –
C[C@]12C=CC(=O)C=C1CC[C@@H]1[C@@H]2[C@@H](O)C[C@@]2(C)[C@H]1CC[C@]2(O)C(=O)CO [Prednisolone] | 9.4 | – | – | – | – | – | – | agonist | increased the immobilization time significantly | significantly reduced bone density | reduced fibrosis | 3301 | 659 | – | – | – | – | – | –
C[C@@H]1C[C@H]2[C@@H]3CCC4=CC(=O)C=C[C@]4(C)C3=CC[C@]2(C)[C@@]1(O)C(=O)CO [Vamorolone] | 7.6 | 10 | increased the immobilization time significantly | not reaching significance | – | – | – | antagonist | – | – | – | – | – | did not reach significance | reduced fibrosis | 761 | 199 | 3279 | 856
